Laboratory results taken from PubChem BioAssay AID248 (DTP/NCI, 2004).
Where “and” joins values, the source holds several entries; their conditions need not be identical. Identical values can stand only once. Inconclusive results and toxic doses are left out. Cut-off read from the data, not from the text of the source: active = T/C of 150% or more; inactive = T/C below 125%.

Test system: L1210 leukemia ip in BDF1 mice, survival T/C
Experiment: NCI In Vivo Anticancer Drug Screen. Data for tumor model L1210 Leukemia (intraperitoneal) in B6D2F1 (BDF1) mice
Settings: endpoint: mean survival time, higher = longer survival
Procedure, shortened: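 Survival endpoint. Drug-treated group vs vehicle group, expressed as T divided by C. Tumor passaged by transplantation.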

[1] = dose: 5.0 mg/kg/injection, schedule: Q01DX001 (ip), vehicle: saline
[2] = dose: 100.0 mg/kg/injection, schedule: Q04DX003 (ip), vehicle: saline
[3] = dose: 200.0 mg/kg/injection, schedule: Q04DX003 (ip), vehicle: saline
[4] = dose: 200.0 mg/kg/injection, schedule: Q01DX001 (ip), vehicle: carboxymethylcellulose (CMC)
[5] = dose: 400.0 mg/kg/injection, schedule: Q01DX001 (ip), vehicle: carboxymethylcellulose (CMC)
[6] = dose: 100.0 mg/kg/injection, schedule: Q01DX009 (ip), vehicle: Klucel (hydroxypropylcellulose) (HPC)
[7] = dose: 200.0 mg/kg/injection, schedule: Q01DX009 (ip), vehicle: Klucel (hydroxypropylcellulose) (HPC)
[8] = dose: 400.0 mg/kg/injection, schedule: Q04DX003 (ip), vehicle: saline
[9] = dose: 100.0 mg/kg/injection, schedule: Q01DX009 (ip), vehicle: saline with Tween-80
[10] = dose: 100.0 mg/kg/injection, schedule: Q04DX003 (ip), vehicle: saline with Tween-80
[11] = dose: 200.0 mg/kg/injection, schedule: Q01DX009 (ip), vehicle: saline with Tween-80
[12] = dose: 200.0 mg/kg/injection, schedule: Q04DX003 (ip), vehicle: saline with Tween-80
[13] = dose: 400.0 mg/kg/injection, schedule: Q01DX009 (ip), vehicle: saline with Tween-80
[14] = dose: 400.0 mg/kg/injection, schedule: Q04DX003 (ip), vehicle: saline with Tween-80

Measured: T/C

Cc1ccc2c(c1)SP(=S)(c1ccccc1)N2 (stereo unspecified)
inactive: dose: 15.0 mg/kg/injection, schedule: Q01DX Z (ip), vehicle: saline 100 % of control | dose: 25.0 mg/kg/injection, schedule: Q01DX Z (ip), vehicle: saline 89 % of control

Cc1cc(O)c2cc3c(O)c(O)ccc3cc2c1
inactive: dose: 0.5 mg/kg/injection, schedule: Q01DX015 (ip), vehicle: saline 94 % of control | dose: 1.0 mg/kg/injection, schedule: Q01DX015 (ip), vehicle: saline 96 % of control | dose: 2.0 mg/kg/injection, schedule: Q01DX015 (ip), vehicle: saline 96 % of control | dose: 4.0 mg/kg/injection, schedule: Q01DX015 (ip), vehicle: saline 100 % of control and 109 % of control | [1] 112 % of control | dose: 6.2 mg/kg/injection, schedule: Q01DX001 (ip), vehicle: carboxymethylcellulose (CMC) 108 % of control | dose: 8.0 mg/kg/injection, schedule: Q01DX015 (ip), vehicle: saline 103 % of control | dose: 10.0 mg/kg/injection, schedule: Q01DX001 (ip), vehicle: saline 115 % of control | dose: 12.5 mg/kg/injection, schedule: Q01DX001 (ip), vehicle: carboxymethylcellulose (CMC) 104 % of control | dose: 25.0 mg/kg/injection, schedule: Q01DX001 (ip), vehicle: carboxymethylcellulose (CMC) 110 % of control

[CH3][Sb]1([CH3])([I])[CH2]CCC[CH2]1
inactive: [2] 97 % of control | [3] 97 % of control

c1ccc(C[n+]2ccc(-c3cc[n+](Cc4ccccc4)cc3)cc2)cc1
inactive: [1] 109 % of control

Nc1ncc(C=Nc2ccc(C(=O)O)cc2)c(N)n1
inactive: [4] 94 % of control | [5] 102 % of control

CC(=O)OC1CCC2(C)C(=CCC3C2CCC2(C)C3CC3OC4(CCC(C)CO4)C(C)C32)C1 (stereo unspecified)
inactive: [6] 98 % of control | [7] 96 % of control | dose: 400.0 mg/kg/injection, schedule: Q01DX009 (ip), vehicle: Klucel (hydroxypropylcellulose) (HPC) 95 % of control

ClCCCCC(Cl)(Cl)Cl
inactive: dose: 75.0 mg/kg/injection, schedule: Q01DX009 (ip), vehicle: saline 93 % of control | [2] 102 % of control | dose: 150.0 mg/kg/injection, schedule: Q01DX009 (ip), vehicle: saline 91 % of control | [3] 98 % of control | dose: 300.0 mg/kg/injection, schedule: Q01DX009 (ip), vehicle: saline 90 % of control | [8] 108 % of control

COc1ccc(C(=O)CN2C=C(C(=O)c3cc4ccccc4n3S(=O)(=O)c3ccccc3)CCC2)cc1
inactive: dose: 100.0 mg/kg/injection, schedule: Q04DX002 (ip), vehicle: saline with Tween-80 94 % of control | dose: 200.0 mg/kg/injection, schedule: Q04DX002 (ip), vehicle: saline with Tween-80 87 % of control | dose: 400.0 mg/kg/injection, schedule: Q04DX002 (ip), vehicle: saline with Tween-80 87 % of control

CCOc1c(N2CCOCC2)c(=O)c1=O
inactive: [9] 103 % of control | [10] 93 % of control | [11] 97 % of control | [12] 101 % of control | [13] 91 % of control | [14] 93 % of control

O=C1/C(=C/c2cccnc2)CCc2ccccc21
inactive: dose: 25.0 mg/kg/injection, schedule: Q01DX009 (ip), vehicle: Klucel (hydroxypropylcellulose) (HPC) 98 % of control | dose: 50.0 mg/kg/injection, schedule: Q01DX009 (ip), vehicle: Klucel (hydroxypropylcellulose) (HPC) 106 % of control | [6] 97 % of control | [10] 104 % of control | [7] 112 % of control | [12] 97 % of control

COc1cccc(C(=O)CC(O)(C(F)(F)F)C(F)(F)F)c1
inactive: dose: 50.0 mg/kg/injection, schedule: Q04DX003 (ip), vehicle: other 100 % of control | dose: 100.0 mg/kg/injection, schedule: Q04DX003 (ip), vehicle: other 96 % of control | dose: 200.0 mg/kg/injection, schedule: Q04DX003 (ip), vehicle: other 98 % of control | dose: 400.0 mg/kg/injection, schedule: Q04DX003 (ip), vehicle: other 104 % of control

C/C(=N\O)c1c[nH]c(=O)[nH]c1=O
inactive: dose: 100.0 mg/kg/injection, schedule: Q04DX002 (ip), vehicle: Klucel (hydroxypropylcellulose) (HPC) 94 % of control | dose: 200.0 mg/kg/injection, schedule: Q04DX002 (ip), vehicle: Klucel (hydroxypropylcellulose) (HPC) 103 % of control

CCc1ccccc1NC(=O)NCc1ccco1
inactive: [6] 101 % of control | [7] 92 % of control

COC(=O)c1c[nH]c2ccc(Br)cc12
inactive: [2] 108 % of control | [3] 92 % of control | [8] 89 % of control

N=C(c1ccccc1)c1ccccc1S(=O)(=O)Nc1ccccc1
inactive: dose: 100.0 mg/kg/injection, schedule: Q01DX001 (ip), vehicle: carboxymethylcellulose (CMC) 95 % of control | [4] 101 % of control | [5] 95 % of control

C=C(Cl)CSC(=S)N(C)C
inactive: dose: 50.0 mg/kg/injection, schedule: Q01DX009 (ip), vehicle: saline 98 % of control | dose: 100.0 mg/kg/injection, schedule: Q01DX009 (ip), vehicle: saline 98 % of control

OC1CCC(c2ccccc2)C1 (stereo unspecified)
inactive: dose: 75.0 mg/kg/injection, schedule: Q01DX001 (ip), vehicle: other 98 % of control | dose: 150.0 mg/kg/injection, schedule: Q01DX001 (ip), vehicle: other 97 % of control | dose: 300.0 mg/kg/injection, schedule: Q01DX001 (ip), vehicle: other 106 % of control

COc1cc([N+](=O)[O-])c(Cl)cc1NS(=O)(=O)c1ccccc1
inactive: [9] 100 % of control | [10] 97 % of control | dose: 133.0 mg/kg/injection, schedule: Q04DX003 (ip), vehicle: saline with Tween-80 95 % of control and 89 % of control | [11] 103 % of control | dose: 300.0 mg/kg/injection, schedule: Q04DX003 (ip), vehicle: saline with Tween-80 95 % of control and 92 % of control | [13] 89 % of control | [14] 95 % of control

Cc1ccc(NC(=O)N(CCO)C2CCCCC2)c([N+](=O)[O-])c1
inactive: dose: 100.0 mg/kg/injection, schedule: Q04DX003 (ip), vehicle: Klucel (hydroxypropylcellulose) (HPC) 87 % of control | dose: 200.0 mg/kg/injection, schedule: Q04DX003 (ip), vehicle: Klucel (hydroxypropylcellulose) (HPC) 98 % of control | dose: 400.0 mg/kg/injection, schedule: Q04DX003 (ip), vehicle: Klucel (hydroxypropylcellulose) (HPC) 96 % of control

Cc1ccc(C)[nH]1
inactive: dose: 5.0 mg/kg/injection, schedule: Q01DX009 (ip), vehicle: saline with Tween-80 96 % of control | dose: 5.0 mg/kg/injection, schedule: Q04DX003 (ip), vehicle: saline with Tween-80 93 % of control | dose: 10.0 mg/kg/injection, schedule: Q01DX009 (ip), vehicle: saline with Tween-80 94 % of control | dose: 10.0 mg/kg/injection, schedule: Q04DX003 (ip), vehicle: saline with Tween-80 98 % of control | dose: 20.0 mg/kg/injection, schedule: Q01DX009 (ip), vehicle: saline with Tween-80 100 % of control | dose: 20.0 mg/kg/injection, schedule: Q04DX003 (ip), vehicle: saline with Tween-80 93 % of control

COc1ccc(C(=O)CBr)c(OC)c1
inactive: dose: 12.5 mg/kg/injection, schedule: Q04DX003 (ip), vehicle: saline 104 % of control | dose: 25.0 mg/kg/injection, schedule: Q01DX009 (ip), vehicle: saline with Tween-80 96 % of control | dose: 25.0 mg/kg/injection, schedule: Q04DX003 (ip), vehicle: saline 97 % of control | dose: 50.0 mg/kg/injection, schedule: Q04DX003 (ip), vehicle: saline 93 % of control | [10] 97 % of control
